From ChEMBL document CHEMBL5338824 (J Med Chem, 2023)
Active and inactive are the calls of the source. The calls are words filed in the database; no cut-off is given here.

Columns and labels:
MV4-11 [1] = assay: Antiproliferative activity against human MV4-11 cells assessed as cell growth inhibition incubated for 4 days by WST-8 assay; format: functional, cell-based; details: MV4-11, 96 h
MOLM-13 = assay: Antiproliferative activity against human MOLM-13 cells assessed as cell growth inhibition incubated for 4 days by WST-8 assay; format: functional, cell-based; details: MOLM-13, 96 h
HL-60 = assay: Antiproliferative activity against human HL-60 cells assessed as cell growth inhibition incubated for 4 days by WST-8 assay; format: functional, cell-based; details: HL-60, 96 h
RS4-11 = assay: Antiproliferative activity against human RS4-11 cells assessed as cell growth inhibition incubated for 4 days by WST-8 assay; format: functional, cell-based; details: RS4-11, 96 h
MDA-MB-231 [2] = assay: Antiproliferative activity against human MDA-MB-231 cells assessed as cell growth inhibition incubated for 4 days by WST-8 assay; format: functional, cell-based; details: MDA-MB-231, 96 h
MDA-MB-453 = assay: Antiproliferative activity against human MDA-MB-453 cells assessed as cell growth inhibition incubated for 4 days by WST-8 assay; format: functional, cell-based; details: MDA-MB-453, 96 h
MCF7 = assay: Antiproliferative activity against human MCF7 cells assessed as cell growth inhibition incubated for 4 days by WST-8 assay; format: functional, cell-based; details: MCF7, 96 h
T47D = assay: Antiproliferative activity against human T47D cells assessed as cell growth inhibition incubated for 4 days by WST-8 assay; format: functional, cell-based; details: 96 h
MV4-11 [3] = assay: Antitumor activity against human MV4-11 cells xenografted in SCID mouse assessed as decrease in tumor growth at 20 mg/kg,ip qd administrated and measured after 48 hrs; format: functional, organism-based
MV4-11 [4] = assay: Antitumor activity against human MV4-11 cells xenografted in SCID mouse assessed as inhibition of tumor growth at 20 mg/kg,ip qd administrated and measured after 1 week; format: functional; details: MV4-11, 168 h, time 1 weeks
[5] = Toxicity in SCID mouse xenografted with human MV4-11 cells assessed as body weight loss at 20 mg/kg,ip qd administrated 5 days per week for 4 weeks; format: organism-based; details: in vivo, 672 h, time 28 day
[6] = Toxicity in SCID mouse xenografted with human MDA-MB-231 cells assessed as body weight loss at 20 mg/kg,ip qd administrated 5 days per week for 4 weeks; format: organism-based; details: in vivo, 672 h, time 28 day
[7] = Toxicity in SCID mouse xenografted with human MV4-11 cells assessed as toxic signs at 20 mg/kg,ip qd administrated 5 days per week for 4 weeks; format: organism-based; details: in vivo, 672 h, time 28 day
[8] = Toxicity in SCID mouse xenografted with human MDA-MB-231 cells assessed as toxic signs at 20 mg/kg,ip qd administrated 5 days per week for 4 weeks; format: organism-based; details: in vivo, 672 h, time 28 day
[9] = target: T1, Protein cereblon/Bromodomain-containing protein 2 (Homo sapiens, UniProt P25440+Q96SW2); details: MV4-11, dose 0.1-1000 nM, time 4.0 hrs
Target sequence in this assay (P25440 whole entry, looked up): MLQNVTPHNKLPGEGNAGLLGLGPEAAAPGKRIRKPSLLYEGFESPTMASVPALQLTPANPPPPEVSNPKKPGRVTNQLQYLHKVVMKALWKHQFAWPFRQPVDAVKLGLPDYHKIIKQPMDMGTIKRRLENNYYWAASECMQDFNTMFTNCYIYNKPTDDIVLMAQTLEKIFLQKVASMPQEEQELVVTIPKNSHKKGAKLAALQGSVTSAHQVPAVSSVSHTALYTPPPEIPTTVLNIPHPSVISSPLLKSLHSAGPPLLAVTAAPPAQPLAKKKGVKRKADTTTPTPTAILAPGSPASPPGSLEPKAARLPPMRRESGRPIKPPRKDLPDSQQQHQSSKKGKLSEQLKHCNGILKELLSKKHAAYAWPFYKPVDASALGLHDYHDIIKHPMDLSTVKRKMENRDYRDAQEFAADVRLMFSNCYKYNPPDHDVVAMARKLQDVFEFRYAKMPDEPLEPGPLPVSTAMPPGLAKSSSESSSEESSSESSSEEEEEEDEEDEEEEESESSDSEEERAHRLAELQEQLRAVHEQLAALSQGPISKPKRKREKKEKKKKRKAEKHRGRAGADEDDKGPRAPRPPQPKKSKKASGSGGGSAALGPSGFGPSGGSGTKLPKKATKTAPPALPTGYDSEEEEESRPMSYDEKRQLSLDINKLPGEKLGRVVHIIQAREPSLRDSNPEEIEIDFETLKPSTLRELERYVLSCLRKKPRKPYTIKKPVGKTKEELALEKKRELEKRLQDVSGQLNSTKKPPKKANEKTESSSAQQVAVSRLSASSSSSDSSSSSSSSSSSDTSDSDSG
Target sequence in this assay (Q96SW2 whole entry, looked up): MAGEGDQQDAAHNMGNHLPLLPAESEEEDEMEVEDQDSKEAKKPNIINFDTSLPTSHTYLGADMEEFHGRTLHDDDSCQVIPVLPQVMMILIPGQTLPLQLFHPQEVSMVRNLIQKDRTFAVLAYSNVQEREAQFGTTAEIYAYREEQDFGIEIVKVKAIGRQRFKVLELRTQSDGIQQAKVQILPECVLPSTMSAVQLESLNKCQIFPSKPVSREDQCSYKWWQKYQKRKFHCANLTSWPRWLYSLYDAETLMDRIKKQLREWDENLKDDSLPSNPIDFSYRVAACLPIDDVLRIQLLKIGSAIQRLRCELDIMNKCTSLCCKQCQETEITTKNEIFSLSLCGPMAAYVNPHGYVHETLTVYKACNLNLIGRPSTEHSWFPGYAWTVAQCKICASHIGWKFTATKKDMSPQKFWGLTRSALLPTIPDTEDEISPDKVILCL

[10] = target: T2, Protein cereblon/Bromodomain-containing protein 3 (Homo sapiens, UniProt Q15059+Q96SW2); details: MV4-11, dose 0.1-1000 nM, time 4.0 hrs
Target sequence in this assay (Q15059 2-726 limits assumed): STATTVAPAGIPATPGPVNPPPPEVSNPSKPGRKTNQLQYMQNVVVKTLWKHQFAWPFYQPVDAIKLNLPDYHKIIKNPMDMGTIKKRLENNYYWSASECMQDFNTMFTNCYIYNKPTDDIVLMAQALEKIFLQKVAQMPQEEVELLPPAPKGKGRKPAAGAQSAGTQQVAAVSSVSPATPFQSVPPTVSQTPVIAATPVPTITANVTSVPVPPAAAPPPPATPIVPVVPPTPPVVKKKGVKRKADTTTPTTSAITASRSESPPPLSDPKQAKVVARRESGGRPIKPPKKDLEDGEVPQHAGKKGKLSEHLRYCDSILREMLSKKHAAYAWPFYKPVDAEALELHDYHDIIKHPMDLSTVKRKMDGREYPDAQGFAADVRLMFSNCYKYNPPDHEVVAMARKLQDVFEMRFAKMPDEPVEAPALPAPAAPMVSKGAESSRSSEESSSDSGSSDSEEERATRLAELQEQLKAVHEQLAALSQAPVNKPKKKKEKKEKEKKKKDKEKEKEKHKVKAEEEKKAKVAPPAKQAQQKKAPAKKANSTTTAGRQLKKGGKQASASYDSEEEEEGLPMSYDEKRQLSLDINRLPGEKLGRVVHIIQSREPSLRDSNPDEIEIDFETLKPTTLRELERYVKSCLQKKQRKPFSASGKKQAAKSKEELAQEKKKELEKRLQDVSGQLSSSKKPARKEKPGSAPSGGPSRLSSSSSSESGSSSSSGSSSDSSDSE
Target sequence in this assay (Q96SW2 whole entry partner): as the sequence (Q96SW2 whole entry, looked up) above

[11] = target: T1, Protein cereblon/Bromodomain-containing protein 2; details: RS4-11, dose 0.1-1000 nM, time 4.0 hrs
Target sequence in this assay (P25440 whole entry, looked up): as the sequence (P25440 whole entry, looked up) above
Target sequence in this assay (Q96SW2 whole entry, looked up): as the sequence (Q96SW2 whole entry, looked up) above

[12] = target: T1, Protein cereblon/Bromodomain-containing protein 2; details: HL-60, dose 0.1-1000 nM, time 4.0 hrs
Target sequence in this assay (P25440 whole entry, looked up): as the sequence (P25440 whole entry, looked up) above
Target sequence in this assay (Q96SW2 whole entry, looked up): as the sequence (Q96SW2 whole entry, looked up) above

[13] = target: T1, Protein cereblon/Bromodomain-containing protein 2; details: MOLM-13, dose 0.1-1000 nM, time 4.0 hrs
Target sequence in this assay (P25440 whole entry, looked up): as the sequence (P25440 whole entry, looked up) above
Target sequence in this assay (Q96SW2 whole entry, looked up): as the sequence (Q96SW2 whole entry, looked up) above

[14] = target: T1, Protein cereblon/Bromodomain-containing protein 2; details: MDA-MB-231, dose 0.1-1000 nM, time 4.0 hrs
Target sequence in this assay (P25440 whole entry, looked up): as the sequence (P25440 whole entry, looked up) above
Target sequence in this assay (Q96SW2 whole entry, looked up): as the sequence (Q96SW2 whole entry, looked up) above

[15] = target: T1, Protein cereblon/Bromodomain-containing protein 2; details: MDA-MB-453, dose 0.1-1000 nM, time 4.0 hrs
Target sequence in this assay (P25440 whole entry, looked up): as the sequence (P25440 whole entry, looked up) above
Target sequence in this assay (Q96SW2 whole entry, looked up): as the sequence (Q96SW2 whole entry, looked up) above

[16] = target: T1, Protein cereblon/Bromodomain-containing protein 2; details: MCF7, dose 0.1-1000 nM, time 4.0 hrs
[17] = target: T1, Protein cereblon/Bromodomain-containing protein 2; details: T47D, dose 0.1-1000 nM, time 4.0 hrs
[18] = target: T2, Protein cereblon/Bromodomain-containing protein 3; details: RS4-11, dose 0.1-1000 nM, time 4.0 hrs
Target sequence in this assay (Q15059 2-726 limits assumed): as the sequence (Q15059 2-726 limits assumed) above
Target sequence in this assay (Q96SW2 whole entry partner): as the sequence (Q96SW2 whole entry, looked up) above

[19] = target: T2, Protein cereblon/Bromodomain-containing protein 3; details: HL-60, dose 0.1-1000 nM, time 4.0 hrs
Target sequence in this assay (Q15059 2-726 limits assumed): as the sequence (Q15059 2-726 limits assumed) above
Target sequence in this assay (Q96SW2 whole entry partner): as the sequence (Q96SW2 whole entry, looked up) above

[20] = target: T2, Protein cereblon/Bromodomain-containing protein 3; details: MOLM-13, dose 0.1-1000 nM, time 4.0 hrs
Target sequence in this assay (Q15059 2-726 limits assumed): as the sequence (Q15059 2-726 limits assumed) above
Target sequence in this assay (Q96SW2 whole entry partner): as the sequence (Q96SW2 whole entry, looked up) above

[21] = target: T2, Protein cereblon/Bromodomain-containing protein 3; details: MDA-MB-231, dose 0.1-1000 nM, time 4.0 hrs
Target sequence in this assay (Q15059 2-726 limits assumed): as the sequence (Q15059 2-726 limits assumed) above
Target sequence in this assay (Q96SW2 whole entry partner): as the sequence (Q96SW2 whole entry, looked up) above

[22] = target: T2, Protein cereblon/Bromodomain-containing protein 3; details: MDA-MB-453, dose 0.1-1000 nM, time 4.0 hrs
Target sequence in this assay (Q15059 2-726 limits assumed): as the sequence (Q15059 2-726 limits assumed) above
Target sequence in this assay (Q96SW2 whole entry partner): as the sequence (Q96SW2 whole entry, looked up) above

[23] = target: T2, Protein cereblon/Bromodomain-containing protein 3; details: MCF7, dose 0.1-1000 nM, time 4.0 hrs
[24] = target: T2, Protein cereblon/Bromodomain-containing protein 3; details: T47D, dose 0.1-1000 nM, time 4.0 hrs
[25] = target: T2, Protein cereblon/Bromodomain-containing protein 3; assay: In vivo protac activity at CRBN/BRD3 in human MV4-11 cells xenografted in SCID mouse assessed as degradation of BRD3 protein at 20 mg/kg,ip administrated and measured at 3 to 48 hrs by Western blotting analysis; format: functional, organism-based; details: time lower 3.0 hrs, time upper […]
[26] = target: T1, Protein cereblon/Bromodomain-containing protein 2; assay: In vivo protac activity at CRBN/BRD2 in human MV4-11 cells xenografted in SCID mouse assessed as degradation of BRD2 protein at 20 mg/kg,ip administrated and measured at 3 to 48 hrs by Western blotting analysis; format: functional, organism-based; details: time lower 3.0 hrs, time upper […]
MV4-11 [27] = assay: Antitumor activity against human MV4-11 cells xenografted in SCID mouse assessed as inhibition of tumor growth at 20 mg/kg,ip qd administrated 5 days per week for 4 weeks; format: functional; details: MV4-11, 672 h, time 28 day
MDA-MB-231 [28] = assay: Antitumor activity against human MDA-MB-231 cells xenografted in SCID mouse assessed as inhibition of tumor growth at 20 mg/kg,ip qd administrated 5 days per week for 4 weeks; format: functional; details: MDA-MB-231, 672 h, time 28 day
[29] = target: T1, Protein cereblon/Bromodomain-containing protein 2; assay: PROTAC activity at CRBN/BRD2 in human MV4-11 cells assessed as degradation of BRD2 protein level incubated for 4 hrs by Western blotting assay; format: cell-based
Target sequence in this assay (P25440 whole entry): as the sequence (P25440 whole entry, looked up) above
Target sequence in this assay (Q96SW2 whole entry): as the sequence (Q96SW2 whole entry, looked up) above

[30] = target: T2, Protein cereblon/Bromodomain-containing protein 3; assay: PROTAC activity at CRBN/BRD3 in human MV4-11 cells assessed as degradation of BRD3 protein level incubated for 4 hrs by Western blotting assay; format: cell-based
Target sequence in this assay (Q15059 whole entry): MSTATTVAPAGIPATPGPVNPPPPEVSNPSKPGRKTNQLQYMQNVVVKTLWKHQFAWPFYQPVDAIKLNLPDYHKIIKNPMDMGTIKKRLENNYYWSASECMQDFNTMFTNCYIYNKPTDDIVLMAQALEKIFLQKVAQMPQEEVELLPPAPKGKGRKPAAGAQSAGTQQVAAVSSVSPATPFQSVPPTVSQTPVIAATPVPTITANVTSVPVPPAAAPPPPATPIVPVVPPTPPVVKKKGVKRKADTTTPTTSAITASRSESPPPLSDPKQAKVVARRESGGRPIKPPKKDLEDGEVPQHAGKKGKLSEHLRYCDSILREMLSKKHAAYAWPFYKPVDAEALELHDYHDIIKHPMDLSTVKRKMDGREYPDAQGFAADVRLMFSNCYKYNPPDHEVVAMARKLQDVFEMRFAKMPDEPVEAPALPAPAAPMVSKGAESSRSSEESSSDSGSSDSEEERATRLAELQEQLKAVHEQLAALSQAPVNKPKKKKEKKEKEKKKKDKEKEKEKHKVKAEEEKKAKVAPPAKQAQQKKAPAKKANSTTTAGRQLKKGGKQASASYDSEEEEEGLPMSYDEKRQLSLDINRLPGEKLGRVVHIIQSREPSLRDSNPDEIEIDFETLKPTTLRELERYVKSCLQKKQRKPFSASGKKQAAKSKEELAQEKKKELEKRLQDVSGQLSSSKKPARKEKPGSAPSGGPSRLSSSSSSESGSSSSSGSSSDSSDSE
Target sequence in this assay (Q96SW2 whole entry): as the sequence (Q96SW2 whole entry, looked up) above

[31] = target: T3, Protein cereblon/Bromodomain-containing protein 4 (Homo sapiens, UniProt O60885+Q96SW2); assay: PROTAC activity at CRBN/BRD4 in human MV4-11 cells assessed as degradation of BRD4 protein level incubated for 4 hrs by Western blotting assay; format: cell-based
[32] = target: T3, Protein cereblon/Bromodomain-containing protein 4; details: MV4-11, dose 0.1-1000 nM, time 4.0 hrs

T3 sequence (Q96SW2 whole entry, looked up, other chains not shown): as the sequence (Q96SW2 whole entry, looked up) above

Row | IC50 (MV4-11 [1]) [nM] | IC50 (MOLM-13) [nM] | IC50 (HL-60) [nM] | IC50 (RS4-11) [nM] | IC50 (MDA-MB-231 [2]) [nM] | IC50 (MDA-MB-453) [nM] | IC50 (MCF7) [nM] | IC50 (T47D) [nM] | Emax [9] [%] | Emax [10] [%] | SMILES | Emax [11] [%] | Emax [12] [%] | Emax [13] [%] | Emax [14] [%] | Emax [15] [%] | Emax [16] [%] | Emax [17] [%] | Emax [18] [%] | Emax [19] [%] | Emax [20] [%] | further results
1 | 149 | 212 | 113 | 186 | 151 | 689 | 804 | 623 | 0 | 0 | Cc1nnc2n1-c1sc(C#Cc3cnn(C)c3)c(Cc3ccccc3)c1COC2 |  |  |  |  |  |  |  |  |  |  | Activity [25]: inactive; Activity [26]: inactive; inhibition in vivo at 20 mg/kg (MV4-11 [27]): 63%; inhibition in vivo at 20 mg/kg (MDA-MB-231 [28]): 49%
2 |  |  |  |  |  |  |  |  | 68 | 56 | Cc1nnc2n1-c1sc(C#Cc3cnn(C4CCN(c5cccc6c5C(=O)N(C5CCC(=O)NC5=O)C6=O)CC4)c3)c(Cc3ccccc3)c1COC2 (stereo unspecified) |  |  |  |  |  |  |  |  |  |  | 
3 |  |  |  |  |  |  |  |  | 5 | 12 | Cc1nnc2n1-c1sc(C#Cc3cnn(C4CN(c5cccc6c5C(=O)N(C5CCC(=O)N(C)C5=O)C6=O)C4)c3)c(Cc3ccccc3)c1COC2 (stereo unspecified) |  |  |  |  |  |  |  |  |  |  | DC50 [29]: > 1000 nM; DC50 [30]: > 1000 nM; DC50 [31]: > 1000 nM; Emax [32]: 2%
4 | 17 | 25 | 4.9 | 6.4 | 15.9 | 59.9 | 37.8 | 3.3 | 0 | 0 | Cc1nnc2n1-c1sc(C#Cc3cnn(C4CN(c5cccc6c5C(=O)N(C5CCC(=O)NC5=O)C6=O)C4)c3)c(Cc3ccccc3)c1COC2 (stereo unspecified) | < 10 | 10 | 27 | 0 | 18 | 0 | 0 | 6 | 18 | 13 | Emax [21]: 19%; Emax [22]: 5%; Emax [23]: 34%; Emax [24]: 22%

Row | SMILES | IC50 (MV4-11 [1]) [nM] | IC50 (MOLM-13) [nM] | IC50 (HL-60) [nM] | IC50 (RS4-11) [nM] | IC50 (MDA-MB-231 [2]) [nM] | IC50 (MDA-MB-453) [nM] | IC50 (MCF7) [nM] | IC50 (T47D) [nM] | Emax [9] [%] | Emax [10] [%] | Emax [11] [%] | Emax [12] [%] | Emax [13] [%] | Emax [14] [%] | Emax [15] [%] | Emax [16] [%] | Emax [17] [%] | Emax [18] [%] | Emax [19] [%] | Emax [20] [%] | further results
5 | Cc1nnc2n1-c1sc(C#Cc3cnn(C4(CCN5CCN(C)CC5)CN(c5cccc6c5C(=O)N(C5CCC(=O)NC5=O)C6=O)C4)c3)c(Cc3ccccc3)c1COC2 (stereo unspecified) | 11 | 69 | 5.1 | 4.6 | 17.6 | 80.9 | 38.4 | 3.8 | 0 | 0 | 15 | 18 | 0 | 0 | 0 | 11 | 6 | 15 | 10 | 9 | Activity (MV4-11 [3]): Active; inhibition in vivo at 20 mg/kg (MV4-11 [4]): 56%; Activity [5]: Non-Toxic; Activity [6]: Non-Toxic; Activity [7]: Non-Toxic; Activity [8]: Non-Toxic; Emax [21]: 0%; Emax [22]: 14%; Emax [23]: 0%; Emax [24]: 25%
